Laboratory results from paper PMC8567874, “Metronomic delivery of orally available pemetrexed-incorporated colloidal dispersions for boosting tumor-specific immunity” (Drug Delivery, 2021).

Experiment: In situ single-pass rat intestinal perfusion
Type: in vivo
Details: other: in situ single-pass intestinal perfusion, rat intestine, n = 4, read-out: Effective permeability (Peff)
Description: The in situ single-pass intestinal effective permeabilities (Peff) of PMX, PMX/DL(1:1), PMX/DL(1:2), PMX/DL(1:1)-CD, and PMX/DL(1:2)-CD were investigated in rats. The rats were fasted overnight for 12–16 h with free access to water before the experiment and then anesthetized by intramuscular injection of tiletamine·HCl–zolazepam mixture (1:1 [w/w]; 40 mg/kg). With the animal in the supine position, the abdominal cavity was opened using a midline longitudinal incision, and the intestine (duodenum, jejunum, and ileum) was exposed and subsequently intubated at the two ends with a polypropylene perfusion tube connected to a peristaltic pump (Harvard Apparatus, Holliston, MA, USA). After covering the entire excised area with a cotton pad soaked with warm normal saline, the cannulated intestinal segments were flushed with blank perfusion buffer at 37 °C for 30 min, at a constant flow rate of 0.5 mL/min, to remove residual intestinal contents. Then, drug solutions of PMX, PMX/DL(1:1), PMX/DL(1:2), PMX/DL(1:1)-CD, or PMX/DL(1:2)-CD (equivalent to 100 μg/mL PMX) were perfused through the intestinal lumen at 37 °C and a constant flow rate of 0.2 mL/min. After allowing 30 min to achieve a steady-state, outlet perfusate was collected every 15 min for 120 min. In addition, to assess the reliability of the perfusion study, 100 μg/mL fluorescein diluted in perfusion buffer was perfused separately under the same conditions and the collected samples were analyzed at excitation/emission wavelengths of 494/512 nm using a microplate reader (PerkinElmer multimode plate reader; PerkinElmer, Waltham, MA, USA) as a low-permeability marker. During the experiment, all animals were kept on heated pads under a heat lamp to maintain a normal body temperature. At the end of the experiment, the lengths and radii of the cannulated intestinal segments were measured, taking care to avoid stretching them. The collected samples were then filtered using 0.45-μm PVDF filters and stored at −20 °C before analyses. The outlet concentration of PMX in the perfusate was analyzed by HPLC as described above. In addition, the errors caused by rat intestinal water absorption and secretion during perfusion were corrected by the net water flux (ratio of the […] perfusate flows, Qout/Qin) and the corrected drug concentration in perfusate for each formulation was calculated based on the following equation (i.e. gravimetric method): Cout,corr = Cout × (Qout/Qin), where Cout,corr is the corrected outlet PMX concentration (µg/mL), Cout is the PMX outlet concentration (µg/mL), Qin (mL/min) is the flow rate entering the intestine, and Qout (mL/min) is the measured perfusate exit flow (net weight/15 min, assumed density of 1.0 g/mL) for the specified time interval. After correction, the Peff was calculated using the equation: Peff = Qin/A × ln(Cout,corr/Cin), where A is the intestinal area available for absorption (2πrl) based on its length (l) and radius (r).

## O=C1OC2(c3ccc(O)cc3Oc3cc(O)ccc32)c2ccccc21 [fluorescein]
  Papp at 120 min, 100 μg/mL: 0.1 ± 0.2 ×10⁻⁶ cm/s
